Test results as given in patent US11213543B2, “Human gastrointestinal microbiome modulating composition and methods of use” (priority 2011, dated 2022).
Entries after “also recorded” stand apart in the source; their conditions may differ.

Tests used:
[1] = set-up: key: ↑indicates an increase is reported; ↓ indicates that a decrease is reported; settings: reported in the references of Table 6, cited from earlier work
[2] = metformin without FORMULA A
Method: They were started on metformin 500 mg twice a day and was instructed to measure their fasting blood sugar on a daily basis. Over the course of 7 days they were instructed to increase metformin to 1000 mg twice a day.

[3] = cited from earlier work

## Inulin
[1]; TG is triglyceride
  Function: TG: ↓
[1]
  Function: GLP-1: ↑
  Function: PYY: ↑
  Function: ghrelin: ↓
  Function: satiety: ↑

## CN(C)C(=N)N=C(N)N [metformin]
[2]
  stools / diarrhea on metformin: persistent watery stools; also recorded: Diarrhea
[3]; approximate
  weight loss: 2 to 3 kg
[3]; compared to only 6% of diabetic patients not taking metformin
  incidence of diarrhea in diabetic patients taking the drug: 20%

## β-Glucan
[1]
  Function: GLP-1: ↑
  Function: LDL chol: ↓
  Function: PYY: ↑
  Function: ghrelin: ↓
  Function: hunger: ↓
  Function: satiety: ↑
